Assays:
Assay in all cases: relative viability (nuclei count vs DMSO), 5 days (fraction); higher = more cells survive
[1] = compound: Cn1nnc2c(C(N)=O)ncn2c1=O [Temozolomide] + NC(=O)Nc1cc(-c2cccc(F)c2)sc1C(=O)N[C@H]1CCCNC1 [AZD7762] (partner 0.2 µM)
Outline: (§1)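 Lung cancer cell lines in 1536-well plates were dosed by pin tool the day after seeding, either with one drug alone or with a fixed anchor-drug dose plus five library-drug doses (not always all listed) in √10 steps. After 5 days, cells were fixed and their nuclei stained in one step (final 0.05% Triton X-100, 1% formaldehyde, 1 ug/ml Hoechst), then counted on 4× images. Relative viability is the nuclei count in treated wells divided by that in vehicle wells. Values are medians of duplicate plates.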

[2] = compound: Cn1nnc2c(C(N)=O)ncn2c1=O [Temozolomide] + CCNC(=O)c1noc(-c2cc(C(C)C)c(O)cc2O)c1-c1ccc(CN2CCOCC2)cc1 [Luminespib] (partner 0.01 µM)
Outline: as §1

[3] = compound: Cn1nnc2c(C(N)=O)ncn2c1=O [Temozolomide] + CS(=O)(=O)CCNCc1ccc(-c2ccc3ncnc(Nc4ccc(OCc5cccc(F)c5)c(Cl)c4)c3c2)o1 [Lapatinib] (partner 2 µM)
Outline: as §1

[4] = compound: C[C@@H](C(=O)N[C@@H](C1CCCCC1)C(=O)N2CCC[C@H]2C(=O)N[C@@H]3[C@@H](CC4=CC=CC=C34)OCC#CC#CCO[C@@H]5CC6=CC=CC=C6[C@@H]5NC(=O)[C@@H]7CCCN7C(=O)[C@H](C8CCCCC8)NC(=O)[C@H](C)NC)NC [AZD5582] + COc1cccc2cc(-c3nc([C@H]4CC[C@H](C(=O)O)CC4)n4ncnc(N)c34)[nH]c12 [OSI-027] (partner 0.5 µM)
Outline: as §1

Row | Cell Line | relative viability ([1]; first compound 0.6325 µM) | relative viability ([1]; first compound 2 µM) | relative viability ([1]; first compound 6.325 µM) | relative viability ([1]; first compound 20 µM) | relative viability ([2]; first compound 0.2 µM) | relative viability ([2]; first compound 0.6325 µM) | relative viability ([2]; first compound 2 µM) | relative viability ([2]; first compound 6.325 µM) | relative viability ([2]; first compound 20 µM) | relative viability ([3]; first compound 0.2 µM) | relative viability ([3]; first compound 0.6325 µM) | relative viability ([3]; first compound 2 µM) | relative viability ([3]; first compound 6.325 µM) | relative viability ([3]; first compound 20 µM) | relative viability ([4]; first compound 0.001581 µM) | relative viability ([4]; first compound 0.005 µM) | relative viability ([4]; first compound 0.01581 µM) | relative viability ([4]; first compound 0.05 µM) | relative viability ([1]; first compound 0.2 µM)
1 | NCI-H727 | 0.521 | 0.512 | 0.606 | 0.412 | 0.239 | 0.397 | 0.299 | 0.37 | 0.325 | 0.907 | 0.804 | 0.865 | 0.665 | 0.693 | 0.51 | 0.473 | 0.508 | 0.529 | 
2 | NCI-H1915 | 0.652 | 0.584 | 0.281 | 0.27 | 0.963 | 0.761 | 0.616 | 0.429 | 0.313 | 0.995 | 0.935 | 0.876 | 0.693 | 0.376 | 0.559 | 0.64 | 0.475 | 0.627 | 0.757
3 | PC-14 | 0.402 | 0.322 | 0.275 | 0.15 | 0.143 | 0.151 | 0.167 | 0.244 | 0.144 | 0.318 | 0.321 | 0.396 | 0.343 | 0.297 | 0.643 | 1.06 | 0.703 | 0.74 | 0.361
4 | LCLC-97TM1 | 0.293 |  | 0.168 | 0.253 | 0.835 | 0.7 | 0.749 | 0.806 | 0.75 | 0.929 | 1.28 | 0.655 | 0.611 | 1.21 | 0.4 | 0.567 | 0.496 | 0.382 | 0.352
5 | LU99A | 0.355 | 0.353 | 0.421 | 0.43 | 0.265 | 0.312 | 0.288 | 0.23 | 0.225 | 1.13 | 1.03 | 0.977 | 0.87 | 0.966 | 0.259 | 0.295 | 0.243 | 0.287 | 0.377
6 | NCI-H1395 | 0.381 | 0.454 | 0.332 | 0.362 | 0.51 | 0.67 | 0.703 | 0.65 | 0.6 | 1.07 | 1.19 | 1.5 | 0.903 | 0.968 | 0.7 | 0.734 | 0.583 | 0.767 | 0.385
7 | NCI-H2170 | 0.951 | 0.733 | 0.466 | 0.295 |  | 0.7 | 0.749 | 0.478 | 0.359 |  | 0.28 | 0.295 | 0.264 | 0.247 | 0.653 | 0.759 | 0.683 | 0.866 | 
8 | HOP-62 | 0.512 | 0.635 | 0.503 | 0.742 | 0.839 | 0.88 | 0.988 | 0.93 | 0.968 | 1.29 | 1.02 | 1.05 | 1.05 | 0.75 | 0.727 | 0.837 | 0.83 | 0.83 | 0.82
9 | NCI-H322M | 0.559 | 0.545 | 0.547 | 0.455 |  | 0.935 | 0.968 | 0.786 | 0.712 |  | 0.568 | 0.574 | 0.599 | 0.535 | 0.508 | 0.713 |  | 0.562 | 0.558
10 | NCI-H650 | 1.16 | 0.938 | 0.953 | 0.879 | 0.607 | 0.898 | 0.816 | 0.739 | 0.846 | 1.02 | 0.888 | 0.995 | 1.03 | 1.07 | 0.431 | 0.509 | 0.364 | 0.32 | 0.973
